Results as given in publication PMC8588467, “Rational Design 2-Hydroxypropylphosphonium Salts as Cancer Cell Mitochondria-Targeted Vectors: Synthesis, Structure, and Biological Properties” (Molecules, 2021).
Where two headings read alike, the source gives them in different places.

Experiments:
[1] = test system: HuTu-80 cells; assay: Mitochondrial membrane potential, JC-10 flow cytometry; assay type: cell-based, human; settings: for % cells with J-aggregate (red, high membrane potential) / % cells with J-monomer (green, decreased membrane potential): JC-10; for effect on mitochondrial membrane potential: more pronounced with increase of concentration up to IC50
Text: Apoptosis induction by 3a, b, k, j and 4c through the mitochondrial pathway and HuTu-80 cell line was studied by flow cytometry using the fluorescent dye JC-10 from the Mitochondria Membrane Potential Kit. JC-10 accumulated in the mitochondrial matrix and formed aggregates (J-aggregate) with red fluorescence in normal cells with a high mitochondrial membrane potential. The membrane potential decreased in apoptotic cells. JC-10 started to diffuse out from the mitochondria and converts to the monomeric form (J-monomer) and emits green fluorescence. This is recorded with a flow cytometer. […] The process became more pronounced with an increase of 3a, b, 3k, j and 4c concentrations up to IC50 (Figure 5 and Figure 6).
Cells were harvested at 2000 rpm for 5 min and then washed twice with ice-cold PBS, followed by resuspension in JC-10 (10 µg/mL) and incubation at 37 °C for 10 min. After the cells were rinsed three times and suspended in PBS, the JC-10 fluorescence was observed by flow cytometry (Guava easy Cyte, MERCK, NJ, USA).

[2] = test system: HuTu 80 (human duodenal adenocarcinoma); assay: MTT cytotoxicity, HuTu 80; assay type: cell-based; settings: for IC50: mean ± SD, triplicate; for SI HuTu 80: IC50 normal cells (WI38) / IC50 cancer cells, ns = no selectivity
[3] = test system: HuTu-80 cells; assay: Intracellular ROS production, CellROX Deep Red flow cytometry; assay type: cell-based, human; settings: control 600
Text: Increasing the production of reactive oxygen species (ROS) by compounds characterizes the mitochondrial apoptotic pathway. Mitochondria are a potential source and target of ROS. ROS lead to disruption of mitochondrial functions and, as a consequence, to irreversible cell damage. In this regard, the effect of test compounds in HuTu-80 cells on ROS production, using flow cytometry analysis and CellROX® Deep Red flow cytometry kit was investigated. Data presented in Figure 7 show a significant increase in CellROX® Deep Red fluorescence intensity. This indicates an increase in ROS production in the presence of the tested compounds.
ROS generation was investigated using flow cytometry assay and CellROX® Deep Red flow cytometry kit. For this HuTu 80 cells were harvested at 2000 rpm for 5 min and then washed twice with ice-cold PBS, followed by resuspension in 0.1 mL of medium without FBS, to which was added 0.2 μL of Cell ROX® Deep Red and incubated at 37 °C for 30 min After three times washing the cells and suspending them in PBS, the production of ROS in the cells was immediately monitored using flow cytometer Guava easy Cyte, MERCK, NJ, USA).

[4] = test system: HuTu-80 cells; assay: Induction of apoptosis, annexin V/propidium iodide flow cytometry; assay type: cell-based, human; settings: IC50/2, 48-h incubation
Method: Apoptosis is one of the most significant mechanisms used for screening new anti-cancer agents. The apoptosis-inducing effect was carried out on lead compounds 3a, b, k, j and 4c showing high selectivity against HuTu-80 cells. The studies were carried out by flow cytometry at concentrations IC50/2 and IC50 (Figure 4). […] The percentage of apoptotic cells in early and late phases was slightly changed with increase compound concentration up to IC50.
HuTu 80 cells at 1 × 10^6 cells/well in a final volume of 2 mL were seeded into six-well plates. After 48 h of incubation, various concentrations of compounds 3a,b and 3k were added to wells.
The cells were harvested at 2000 rpm for 5 min and, then, washed twice with ice-cold PBS, followed by resuspension in binding buffer. Next, the samples were incubated with 5 μL of annexin V-Alexa Fluor 647 (Sigma–Aldrich, St. Louis, MO, USA) and 5 μL of propidium iodide for 15 min at room temperature in the dark. Finally, the cells were analyzed by flow cytometry (Guava easy Cyte, MERCK, Rahway, NJ, USA) within 1 h. The experiments were repeated three times.

[5] = test system: PC3 (human prostate adenocarcinoma); assay: MTT cytotoxicity, PC3; settings: for IC50: mean ± SD, triplicate; for SI PC3: IC50 normal cells (WI38) / IC50 cancer cells, ns = no selectivity
[6] = test system: WI38 (diploid human embryo lung); assay: MTT cytotoxicity, normal cells WI38; assay type: cell-based; settings: mean ± SD, triplicate, read-out: WI38 IC50 (normal cell line)
[7] = test system: A549 (human lung carcinoma); assay: MTT cytotoxicity, A549; assay type: cell-based; settings: for IC50: mean ± SD, triplicate; for SI A549: IC50 normal cells (WI38) / IC50 cancer cells, ns = no selectivity
[8] = test system: MCF-7 (human breast adenocarcinoma); assay: MTT cytotoxicity, MCF-7; assay type: cell-based; settings: for IC50: mean ± SD, triplicate; for SI MCF-7: IC50 normal cells (WI38) / IC50 cancer cells, ns = no selectivity
[9] = test system: T98G glioblastoma cell line; assay: MTT cytotoxicity, T98G; assay type: cell-based, human; settings: for IC50: MTT, mean ± SD, triplicate; for SI T98G: IC50 normal cells (WI38) / IC50 cancer cells, ns = no selectivity
[10] = test system: M-HeLa (human cervix epitheloid carcinoma); assay: MTT cytotoxicity, M-HeLa; assay type: cell-based; settings: for IC50: MTT, mean ± SD, triplicate; for SI M-HeLa: IC50 normal cells (WI38) / IC50 cancer cells, ns = no selectivity
[11] = Homo sapiens, read-out: IC50 PC3, MTT

Row | Compound | IC50 ([2]; Homo sapiens, HuTu80, MTT) | SI HuTu 80 [2] | IC50 [5, 11] | SI PC3 [5] | IC50 ([6]; Homo sapiens, WI-38, MTT) | IC50 ([7]; Homo sapiens, A549, MTT) | SI A549 [7] | IC50 ([8]; Homo sapiens, MCF7, MTT) | SI MCF-7 [8] | IC50 ([9]; Homo sapiens, T98G) | SI T98G [9] | IC50 ([10]; Homo sapiens, M-HeLa) | SI M-HeLa [10] | IC50 ([2]; MTT) | further results
1 | OC(CCl)C[P+](c1ccccc1)(c1ccccc1)c1ccccc1 (stereo not drawn) [3a, (3-Chloro-2-hydroxypropyl)triphenylphosphonium trifluoromethanesulfonate] | 10.1 ± 0.8 µM | 4 | 45 ± 3.6 µM | ns | 37.5 ± 3.1 µM | 64.4 ± 4.9 µM | ns | 56.1 ± 4.5 µM | ns | 64.3 ± 5.3 µM | ns | 66.7 ± 5.5 µM | ns |  | % cells with J-aggregate (red, high membrane potential) ([1]; IC50, 48 h): 39.4%; % cells with J-monomer (green, decreased membrane potential) ([1]; IC50, 48 h): 60.6%; % cells with J-aggregate (red, high membrane potential) ([1]; IC50/2, 48 h): 40.7%; % cells with J-monomer (green, decreased membrane potential) ([1]; IC50/2, 48 h): 59.2%; effect on mitochondrial membrane potential [1]: decrease the mitochondrial membrane potential; CellROX Deep Red fluorescence intensity (ROS production) ([3]; IC50, 48 h): 1500; CellROX Deep Red fluorescence intensity (ROS production) ([3]; IC50/2, 48 h): 1000; apoptosis induction [4]: actively induce apoptosis
2 | OC(CBr)C[P+](c1ccccc1)(c1ccccc1)c1ccccc1 (stereo not drawn) [3b, (3-Bromo-2-hydroxypropyl)triphenylphosphonium trifluoromethanesulfonate] | 3 ± 0.1 µM | 5 | 23.3 ± 1.9 µM | ns | 13.8 ± 1.1 µM | > 100 µM | ns | 34 ± 2.6 µM | ns | 56 ± 4.5 µM | ns | 30.1 ± 2.4 µM | ns |  | % cells with J-aggregate (red, high membrane potential) ([1]; IC50, 48 h): 48.1%; % cells with J-monomer (green, decreased membrane potential) ([1]; IC50, 48 h): 51.9%; % cells with J-aggregate (red, high membrane potential) ([1]; IC50/2, 48 h): 54.5%; % cells with J-monomer (green, decreased membrane potential) ([1]; IC50/2, 48 h): 45.5%; effect on mitochondrial membrane potential [1]: decrease the mitochondrial membrane potential; CellROX Deep Red fluorescence intensity (ROS production) ([3]; IC50, 48 h): 1580; CellROX Deep Red fluorescence intensity (ROS production) ([3]; IC50/2, 48 h): 1200; apoptosis induction [4]: actively induce apoptosis
3 | OC(CF)C[P+](c1ccccc1)(c1ccccc1)c1ccccc1 (stereo not drawn) [3c, (3-Fluoro-2-hydroxypropyl)triphenylphosphonium trifluoromethanesulfonate] | 19.1 ± 1.6 µM | 2.5 | 53.5 ± 4.2 µM | ns | 47.3 ± 3.8 µM | > 100 µM | ns | 56.5 ± 4.5 µM | ns | 52.1 ± 4.1 µM | ns | 90.6 ± 8.6 µM | ns |  | 
4 | OC(CI)C[P+](c1ccccc1)(c1ccccc1)c1ccccc1 (stereo not drawn) [3d, (2-Hydroxy-3-iodopropyl)triphenylphosphonium trifluoromethanesulfonate] | 9.4 ± 0.7 µM | 4 | 39.1 ± 3.1 µM | ns | 35.2 ± 2.3 µM | 74.2 ± 5.6 µM | ns | 88.6 ± 7.1 µM | ns | 64 ± 4.8 µM | ns | 50 ± 4.3 µM | ns |  | 
5 | COCC(O)C[P+](c1ccccc1)(c1ccccc1)c1ccccc1 (stereo not drawn) [3f, (2-Hydroxy-3-methoxypropyl)triphenylphosphonium trifluoromethanesulfonate] |  | 1.5 |  | ns |  |  | ns |  | ns |  | ns |  | ns | 23.6 ± 1.8 µM | IC50 ([5]; read-out: IC50 PC3, MTT): 55.2 ± 4.5 µM; IC50 ([6]; MTT): 35.6 ± 2.6 µM; IC50 ([7]; MTT): 39 ± 3 µM; IC50 ([8]; MTT): 60.7 ± 4.9 µM; IC50 [9]: 60.4 ± 4.4 µM; IC50 [10]: 56.2 ± 4.7 µM
6 | CCOCC(O)C[P+](c1ccccc1)(c1ccccc1)c1ccccc1 (stereo not drawn) [3g, (3-Ethoxy-2-hydroxypropyl)triphenylphosphonium trifluoromethanesulfonate] |  | 1.6 | 48.9 ± 3.9 µM | ns | 30.1 ± 2.3 µM | 42.2 ± 3.2 µM | ns | 66.8 ± 5.3 µM | ns | 62.9 ± 4.6 µM | ns | 63.7 ± 5.2 µM | ns | 18.4 ± 1.5 µM | 
7 | OC(COCC(F)(F)C(F)F)C[P+](c1ccccc1)(c1ccccc1)c1ccccc1 (stereo not drawn) [3h, (2-Hydroxy-3-(2,2,3,3-tetrafluoropropoxy)propyl)triphenylphosphonium trifluoromethanesulfonate] | 28.9 ± 2.1 µM | ns | 48.7 ± 3.7 µM | ns | 43.7 ± 3.5 µM | 34.3 ± 2.6 µM | ns | 64.4 ± 5 µM | ns | 63.4 ± 4.8 µM | ns | 100 ± 8.6 µM | ns |  | 
8 | C=CCOCC(O)C[P+](c1ccccc1)(c1ccccc1)c1ccccc1 (stereo not drawn) [3i, (3-(Allyloxy)-2-hydroxypropyl)triphenylphosphonium trifluoromethanesulfonate] |  | 5 |  | ns |  |  | ns |  | ns |  | ns |  | ns | 7.1 ± 0.06 µM | IC50 ([5]; read-out: IC50 PC3, MTT): 71.8 ± 6.6 µM; IC50 ([6]; MTT): 34.2 ± 2.7 µM; IC50 ([7]; MTT): 41 ± 3.3 µM; IC50 ([8]; MTT): 70.5 ± 5.6 µM; IC50 [9]: 50.4 ± 4 µM; IC50 [10]: 60.8 ± 5.2 µM
9 | CCCCCCCCCCCCCCCCCC(=O)OCC(O)C[P+](c1ccccc1)(c1ccccc1)c1ccccc1 (stereo not drawn) [3l, (2-Hydroxy-3-stearoyloxy-propyl)triphenylphosphoniumtrifluoromethanesulfonate] | 45 ± 3.5 µM | ns | 53.8 ± 4.4 µM | ns | 50 ± 3.9 µM | 75.1 ± 5.7 µM | ns | 52.8 ± 4.2 µM | ns | 55.9 ± 5 µM | ns | 59.2 ± 5.1 µM | ns |  | 
10 | COCC(O)C[P+](c1ccccc1)(c1ccccc1)c1ccccc1 (stereo not drawn) [4a] | 26.7 ± 2.1 µM | 1.4 | 50.3 ± 4 µM | ns | 36.5 ± 2.8 µM | 36 ± 2.8 µM | ns | 75.7 ± 5.9 µM | ns | 55.3 ± 4.4 µM | ns | 57.3 ± 4.7 µM | ns |  | 
11 | CCOCC(O)C[P+](c1ccccc1)(c1ccccc1)c1ccccc1.[I-] (stereo not drawn) [4b, (3-Ethoxy-2-hydroxypropyl)triphenylphosphonium iodide] |  | 7 |  | ns |  |  | ns |  | ns |  | ns |  | ns | 3.4 ± 0.3 µM | IC50 ([5]; read-out: IC50 PC3, MTT): 42.4 ± 3.3 µM; IC50 ([6]; MTT): 22.9 ± 1.9 µM; IC50 ([7]; MTT): 39.1 ± 3.1 µM; IC50 ([8]; MTT): 60.3 ± 4.7 µM; IC50 [9]: 49.7 ± 4 µM; IC50 [10]: 68.4 ± 5.9 µM
